# Source: article PMC6783499, “Heteroglycoclusters With Dual Nanomolar Affinities for the Lectins LecA and LecB From Pseudomonas aeruginosa” (Frontiers in Chemistry, 2019)
# Molecular target: T1, LecB (Pseudomonas aeruginosa, UniProt Q9HYN5)
# T1 construct: made in house; host or cells: Escherichia coli BL21(DE3)
# Test: biochemical
# Format: binding
# Conditions: for n (stoichiometry, glycocluster molecules per lectin monomer) / –ΔG / –ΔH / −TΔS / Kd: ITC; for n (stoichiometry, glycocluster molecules per lectin monomer): pH 7.5; for –ΔG / –ΔH / −TΔS: per mole of glycocluster; for α (relative potency compared to the monovalent compound) / β (relative potency per sugar unit): relative to αFuc-OMe
# Method: The resulting hGCs were tested in solution with lectins by Isothermal Titration Calorimetry (Table 1) and their binding properties were compared with homoclusters 15–20 (Berthet et al., [2013]; Thomas et al., [2015b]) displaying either 4 and 16 βGal or αFuc units attached with an oxime or a triazole linker (Figure 3). […] Experiments were performed in direct injection mode (i.e., ligand in syringe and protein in cell) to minimize aggregation problems.
# All chemical reagents were purchased from Aldrich (Saint Quentin Fallavier, France) or Acros (Noisy-Le-Grand, France). All protected amino acids and Fmoc-Gly-Sasrin® resin was obtained from Advanced ChemTech Europe (Brussels, Belgium). For peptides and glycopeptides, analytical RP-HPLC was performed on Waters system equipped with a Waters 2695 separations module and a Waters 2487 Dual Absorbance UV/Visible Detector. Analysis was carried out at 1.0 mL/min (EC 125/3 nucleosil 300-5 C18) with UV monitoring at 214 nm and 250 nm using a linear A–B gradient (buffer A: 0.09% CF3CO2H in water; buffer B: 0.09% CF3CO2H in 90% acetonitrile). Purifications were carried out at 22.0 mL/min (VP 250/21 nucleosil 100-7 C18) with UV monitoring at 214 nm and 250 nm using a linear A–B gradient. HRMS and ESI-MS and HRMS spectra of peptides and glycopeptides were measured on an Esquire 3000 spectrometer from Bruker. Lectins LecA and LecB were produced in recombinant form in Escherichia coli BL21(DE3) as described previously (Mitchell et al., [2005]; Blanchard et al., [2008]).
# Other compounds were assayed with a VP-ITC isothermal titration calorimeter (Microcal). The experiments were carried out at 25°C. All glycocompounds and lectins LecB and LecA were dissolved in the same buffer composed of 20 mM Tris with 100 mM NaCl and 0.1 mM CaCl2 at pH 7.5. For PEAQ-ITC, the lectins were placed in the microcalorimeter cell (200 μL) at concentrations varying from 35 to 70 μM. […] For VP-ITC, the microcalorimeter cell (1.447 mL) contained the lectins with concentrations between 30 and 100 μM. A total of 30 injections of 10 μL were performed intervals of 5 min while stirring at 310 rpm with glycoclusters concentrations varying from […]. The experimental data were fitted to a theoretical titration curve using the Microcal PEAQ-ITC analysis software, with ΔH (enthalpy change), Ka (association constant), and N (number of binding sites per monomer) as adjustable parameters. Dissociation constant (Kd), free energy change (ΔG), and entropy contributions (TΔS) were derived from the previous ones. Two or three independent titrations were performed for each ligand tested.
# [1] = 25°C, 20 mM Tris, 100 mM NaCl, 0.1 mM CaCl2, pH 7.5, ligand in syringe
# T1 sequence (Q9HYN5 entry or part of it): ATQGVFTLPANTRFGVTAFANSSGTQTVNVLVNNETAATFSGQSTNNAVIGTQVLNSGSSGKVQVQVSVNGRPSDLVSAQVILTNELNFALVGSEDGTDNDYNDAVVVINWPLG
SMILES,binding improvement on multimerisation of tetravalent to hexadecavalent dendrimer (19 versus tetravalent 15) [fold],"n (stoichiometry, glycocluster molecules per lectin monomer) (25°C)",–ΔG (25°C) [kcal/mol],–ΔH (25°C) [kcal/mol],−TΔS (25°C) [kcal/mol],Kd [1] [nM],binding to LecB in words (abstract),α (relative potency compared to the monovalent compound),β (relative potency per sugar unit),Kd (rounded value) [nM]
C[C@@H]1NC(=O)[C@H](CCCCNC(=O)/C=N/OCC(=O)NCCCC[C@@H]2NC(=O)[C@H](CCCCNC(=O)/C=N/O[C@@H]3O[C@@H](C)[C@@H](O)[C@@H](O)[C@@H]3O)NC(=O)CNC(=O)[C@@H]3CCCN3C(=O)[C@H](CCCCNC(=O)/C=N/O[C@@H]3O[C@@H](C)[C@@H](O)[C@@H](O)[C@@H]3O)NC(=O)[C@H](C)NC(=O)[C@H](CCCCNC(=O)/C=N/O[C@@H]3O[C@@H](C)[C@@H](O)[C@@H](O)[C@@H]3O)NC(=O)CNC(=O)[C@@H]3CCCN3C(=O)[C@H](CCCCNC(=O)/C=N/O[C@@H]3O[C@@H](C)[C@@H](O)[C@@H](O)[C@@H]3O)NC2=O)NC(=O)CNC(=O)[C@@H]2CCCN2C(=O)[C@H](CCCCNC(=O)/C=N/OCC(=O)NCCCC[C@@H]2NC(=O)[C@H](CCCCNC(=O)/C=N/O[C@@H]3O[C@@H](C)[C@@H](O)[C@@H](O)[C@@H]3O)NC(=O)CNC(=O)[C@@H]3CCCN3C(=O)[C@H](CCCCNC(=O)/C=N/O[C@@H]3O[C@@H](C)[C@@H](O)[C@@H](O)[C@@H]3O)NC(=O)[C@H](C)NC(=O)[C@H](CCCCNC(=O)/C=N/O[C@@H]3O[C@@H](C)[C@@H](O)[C@@H](O)[C@@H]3O)NC(=O)CNC(=O)[C@@H]3CCCN3C(=O)[C@H](CCCCNC(=O)/C=N/O[C@@H]3O[C@@H](C)[C@@H](O)[C@@H](O)[C@@H]3O)NC2=O)NC(=O)[C@H](CCCCN)NC(=O)[C@H](CCCCNC(=O)/C=N/OCC(=O)NCCCC[C@@H]2NC(=O)[C@H](CCCCNC(=O)/C=N/O[C@@H]3O[C@@H](C)[C@@H](O)[C@@H](O)[C@@H]3O)NC(=O)CNC(=O)[C@@H]3CCCN3C(=O)[C@H](CCCCNC(=O)/C=N/O[C@@H]3O[C@@H](C)[C@@H](O)[C@@H](O)[C@@H]3O)NC(=O)[C@H](C)NC(=O)[C@H](CCCCNC(=O)/C=N/O[C@@H]3O[C@@H](C)[C@@H](O)[C@@H](O)[C@@H]3O)NC(=O)CNC(=O)[C@@H]3CCCN3C(=O)[C@H](CCCCNC(=O)/C=N/O[C@@H]3O[C@@H](C)[C@@H](O)[C@@H](O)[C@@H]3O)NC2=O)NC(=O)CNC(=O)[C@@H]2CCCN2C(=O)[C@H](CCCCNC(=O)/C=N/OCC(=O)NCCCC[C@@H]2NC(=O)[C@H](CCCCNC(=O)/C=N/O[C@@H]3O[C@@H](C)[C@@H](O)[C@@H](O)[C@@H]3O)NC(=O)CNC(=O)[C@@H]3CCCN3C(=O)[C@H](CCCCNC(=O)/C=N/O[C@@H]3O[C@@H](C)[C@@H](O)[C@@H](O)[C@@H]3O)NC(=O)[C@H](C)NC(=O)[C@H](CCCCNC(=O)/C=N/O[C@@H]3O[C@@H](C)[C@@H](O)[C@@H](O)[C@@H]3O)NC(=O)CNC(=O)[C@@H]3CCCN3C(=O)[C@H](CCCCNC(=O)/C=N/O[C@@H]3O[C@@H](C)[C@@H](O)[C@@H](O)[C@@H]3O)NC2=O)NC1=O [Compound 19],10,0.06,10,76.72 ± 3.35,66.68,44 ± 5,nanomolar affinity,9.8,0.6,
C[C@@H]1NC(=O)[C@H](CCCCn2cc(CO[C@@H]3O[C@@H](C)[C@@H](O)[C@@H](O)[C@@H]3O)nn2)NC(=O)CNC(=O)[C@@H]2CCCN2C(=O)[C@H](CCCCn2cc(CO[C@@H]3O[C@@H](C)[C@@H](O)[C@@H](O)[C@@H]3O)nn2)NC(=O)[C@H](CCCCN)NC(=O)[C@H](CCCCn2cc(CO[C@@H]3O[C@@H](C)[C@@H](O)[C@@H](O)[C@@H]3O)nn2)NC(=O)CNC(=O)[C@@H]2CCCN2C(=O)[C@H](CCCCn2cc(CO[C@@H]3O[C@@H](C)[C@@H](O)[C@@H](O)[C@@H]3O)nn2)NC1=O [Compound 16],,0.19,8.8,28.56 ± 0.24,19.8,367 ± 26,,1.2,0.3,300
